Measurements published in the supplement of paper PMC10307832.

Tests used:
Assay in all cases: relative viability (nuclei count vs DMSO), 5 days (fraction); higher = more cells survive
[1] = compound: CC1=C(CC(=O)O)c2cc(F)ccc2/C1=C\c1ccc([S+](C)[O-])cc1 [Sulindac] + C[C@]1(O)C[C@@H](c2nc(-c3ccc4ccc(-c5ccccc5)nc4c3)c3c(N)nccn32)C1 [Linsitinib] (partner 1 µM)
How it was run: (§1)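 Nuclei were stained with Hoechst during a one-step fixation (final 0.05% Triton X-100, 1% formaldehyde, 1 ug/ml Hoechst) carried out 5 days after dosing, then counted on 4× images. The cells, lung cancer lines in 1536-well plates, had been dosed by pin tool the day after seeding with one drug alone or a fixed anchor-drug dose plus five library-drug doses (not always all listed) in √10 steps. Relative viability is the nuclei count in treated wells divided by that in vehicle wells, and each value is the median of duplicate plates.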

[2] = compound: CN[C@@H]1C[C@H]2O[C@@](C)([C@@H]1OC)n1c3ccccc3c3c4c(c5c6ccccc6n2c5c31)C(=O)NC4 [Staurosporine] + Nc1ncn([C@H]2C[C@H](O)[C@@H](CO)O2)c(=O)n1 [Decitabine] (partner 2 µM)
How it was run: as §1

[3] = compound: O=c1[nH]cc(F)c(=O)[nH]1 [5-Fluorouracil] + Cc1nc(NC(=O)N2CCC[C@H]2C(N)=O)sc1-c1ccnc(C(C)(C)C(F)(F)F)c1 [Alpelisib] (partner 2 µM)
How it was run: as §1

[4] = compound: CN[C@@H]1C[C@H]2O[C@@](C)([C@@H]1OC)n1c3ccccc3c3c4c(c5c6ccccc6n2c5c31)C(=O)NC4 [Staurosporine] + COc1cc2c(Oc3ccc(NC(=O)C4(C(=O)Nc5ccc(F)cc5)CC4)cc3F)ccnc2cc1OCCCN1CCOCC1 [Foretinib] (partner 0.25 µM)
How it was run: as §1

Cell Line	relative viability ([1]; first compound 0.08 µM)	relative viability ([1]; first compound 0.253 µM)	relative viability ([1]; first compound 0.8 µM)	relative viability ([1]; first compound 2.53 µM)	relative viability ([1]; first compound 8 µM)	relative viability ([2]; first compound 0.005 µM)	relative viability ([2]; first compound 0.01581 µM)	relative viability ([2]; first compound 0.05 µM)	relative viability ([2]; first compound 0.1581 µM)	relative viability ([2]; first compound 0.5 µM)	relative viability ([3]; first compound 0.02 µM)	relative viability ([3]; first compound 0.2 µM)	relative viability ([3]; first compound 0.6325 µM)	relative viability ([3]; first compound 2 µM)	relative viability ([4]; first compound 0.005 µM)	relative viability ([4]; first compound 0.05 µM)	relative viability ([4]; first compound 0.1581 µM)	relative viability ([4]; first compound 0.5 µM)	relative viability ([4]; first compound 0.01581 µM)
NCI-H1944	1.19	1.14	1	1.24	1.34	0.41	0.354	0.401	0.326	0.278	0.804	0.763	0.351	0.211	0.756	0.431	0.39	0.251	
NCI-H2085	0.894	0.856	0.876	0.848	0.912	0.527	0.4	0.463	0.364	0.352	0.689	1.03	0.828	0.613	0.516	0.324	0.195	0.26	0.437
NCI-H2347	1.07	1.09	0.982	1.06	1.16	0.527	0.406	0.384	0.309	0.323	1.09	0.709	0.457	0.447	1.04	0.374	0.289	0.422	0.588
ABC-1	1.22	0.806	0.627	0.629	0.741	0.578	0.563	0.353	0.259	0.157	1.11	1.16	0.896	0.92	0.394	0.249	0.269	0.151	0.367
201T	1.06	1.04	1.1	1.02	1.01	0.884		0.787	0.649	0.672	0.979	0.873	0.325	0.332	0.881	0.518	0.314	0.159	0.896
NCI-H1755	1.16	1.07	0.906	1	1.05	0.757	0.634	0.483	0.336	0.133	0.896	0.74	0.294	0.259	0.729	0.261	0.189	0.164	0.471
NCI-H647	1.14	1.3	1.4	1.25	1.21	0.379	0.247	0.266	0.0707	0.062	0.897	0.915	1.06	0.767	0.886	0.535	0.143	0.0766	0.709
NCI-H1355	0.873	0.949	0.777	0.785	0.883	0.389	0.293	0.281	0.234	0.152	0.716	0.551	0.372	0.286	0.963	0.468	0.221	0.221	0.415
NCI-H1975	1.14	1.03		1.07	1.05	0.255	0.206	0.184	0.15	0.131	0.57	0.723	0.465	0.293	0.4	0.21	0.104	0.0901	0.349
BEN	1.02	0.892	0.571	0.967	1.07	0.882	0.621	0.486	0.279	0.311	0.987	0.873	0.657	0.692	0.688	0.248	0.221	0.187	0.418
NCI-H322M	1.01	1.01	0.747	0.951	1.05	0.667	0.49	0.529	0.475	0.49	0.772	0.785	0.609	0.5	0.95	0.536	0.357	0.288	0.759
SK-MES-1	1.11	1.22	0.809	1.08	1.18	0.32	0.239	0.204	0.136	0.121	0.798	0.789	0.447	0.341	0.626	0.293	0.333	0.142	0.581
HOP-62	0.858	0.937	1.14	1.03	1.16	0.219	0.289	0.19	0.131	0.126	0.835	1.03	0.844	0.754	0.801	0.142	0.125	0.119	0.233
HCC-366	0.567	0.759	0.183	0.787	1.03	0.348		0.116	0.0285	0.0403	0.227	0.466	0.182	0.0921	1.07	0.799	0.105	0.303	
NCI-H2405	1.01	0.934	0.852	0.918	1.13	0.516	0.161	0.119	0.107	0.0998	0.793	0.705	0.737	0.609	0.675		0.105	0.0788	0.302
A549	0.532	0.535		0.572	0.641	0.348	0.239	0.108	0.0369	0.0407	0.587	0.476	0.256	0.113	0.675	0.297	0.0276	0.0246	0.268
LXF-289	1.02	0.984	0.931	1.05	0.993	0.445	0.266	0.31	0.18	0.206	1.03	0.595	0.353	0.286	1.01	0.268	0.0989	0.0792	0.164

Cell Line	relative viability ([1]; first compound 0.08 µM)	relative viability ([1]; first compound 0.253 µM)	relative viability ([1]; first compound 0.8 µM)	relative viability ([1]; first compound 2.53 µM)	relative viability ([1]; first compound 8 µM)	relative viability ([2]; first compound 0.005 µM)	relative viability ([2]; first compound 0.01581 µM)	relative viability ([2]; first compound 0.05 µM)	relative viability ([2]; first compound 0.1581 µM)	relative viability ([2]; first compound 0.5 µM)	relative viability ([3]; first compound 0.02 µM)	relative viability ([3]; first compound 0.2 µM)	relative viability ([3]; first compound 0.6325 µM)	relative viability ([3]; first compound 2 µM)	relative viability ([4]; first compound 0.005 µM)	relative viability ([4]; first compound 0.05 µM)	relative viability ([4]; first compound 0.1581 µM)	relative viability ([4]; first compound 0.5 µM)	relative viability ([4]; first compound 0.01581 µM)
NCI-H1793	0.856	0.77	0.471	1.12	1.12	0.341		0.311	0.125	0.191	0.673	0.658	0.543	0.493	0.784	0.474	0.217	0.353	
NCI-H1734	0.987	0.932	0.575	0.903	1.13	0.495	0.353	0.215	0.147	0.122	0.559	0.756	0.582	0.529	0.577	0.317	0.137	0.156	0.453
LU99A	0.578	0.524	0.493	0.499	0.659	0.934	0.672	0.513	0.341	0.198	0.495	0.566	0.47	0.353	0.739	0.342	0.264	0.219	0.505
RERF-LC-KJ	0.922	0.948	0.738	0.895	0.895	0.647	0.397	0.275	0.23	0.201	0.764	0.836	0.852	0.62	0.876	0.702	0.491	0.191	0.824
NCI-H2087	1.01	1.13	0.938	0.964	1.17	0.28	0.141	0.094	0.0598	0.0694	0.977	0.923	0.659	0.536	0.863	0.252	0.112	0.0962	0.561
HCC-78	0.521	0.493	0.439	0.454	0.501	0.76	0.617	0.627	0.444	0.49	0.242	0.281	0.235		0.537	0.429	0.486		0.459
NCI-H1395	1.09	1.07	0.993	0.948	1.18	0.76	0.596	0.454	0.314	0.27	1.1	1.02	1.14	0.844	0.943	0.453	0.416	0.27	0.812
H3255	0.923	1.03	0.745	1.02	1.1	0.53	0.404	0.189	0.162	0.117	0.721	0.816	0.833	0.496	0.884	0.292	0.211	0.183	0.357
HCC-15	0.966	0.868	0.739	0.913	0.921	0.436		0.274	0.134	0.106	0.921	0.836	0.494	0.29	0.975	0.483	0.13	0.107	
NCI-H838	1.19	1.06	0.848	1.01	1.2	0.368	0.271	0.181	0.139	0.141	0.874	0.882	0.484	0.29	0.51	0.208	0.185	0.0995	0.228
NCI-H2023	0.808	0.725	0.43	0.712	0.757	0.218	0.162	0.116	0.0753	0.0615	0.456	0.256	0.124	0.0987	0.526	0.174	0.107	0.0611	
COR-L23	1.18	0.925		0.906	0.999	0.362	0.248	0.193	0.092	0.0806	0.862	0.661	0.491	0.209	0.513	0.376	0.119	0.0927	0.459
EMC-BAC-2	0.894	0.882	0.726	0.809	0.835	0.554	0.269	0.222	0.214	0.208	0.733	0.773	0.801	0.768	0.397	0.252	0.23	0.106	0.344
LCLC-103H	1.18	1.22	0.94	1.04	1.2	0.753	0.484	0.34	0.299	0.278	0.984	0.983	0.699	0.403	0.668	0.171	0.161	0.142	0.178
LK-2	0.464	0.376	0.532	0.417	0.577	0.327	0.173	0.369	0.0995	0.0618	1.3	0.606	0.803	0.578	1.07	1.09	0.437	0.409	
NCI-H460	1.13	0.79		0.988	1.15	0.397	0.308	0.175	0.0228	0.0211	0.389	0.345	0.136	0.0626	0.972	0.755	0.161	0.013	0.85
NCI-H3122	1.07	1.01	0.928	1.07	1.07	0.541		0.602		0.329	0.796	0.653	0.371	0.246	1.03	0.76	0.695	0.371	
